The target in one assay is CB1. Particulars: read-out: Ki to the CB1 receptor; cited from earlier work.
Another assay deals with wild-type CB2 (WT) (Homo sapiens, UniProt P34972). Nature of the assay: Competition binding assay, displacement of [3H]-CP-55940, membranes of CHO cells. Background: In a radioligand displacement assay an active substance lowers the binding of a labelled ligand.
The next assay addresses CB2-WT (Homo sapiens, UniProt P34972). Nature of the assay: [3H]CP55940 binding to CB2-WT in buffer supplemented with NaCl. As to conditions: NaCl up to 1000 mM; CB2-WT transiently expressed on CHO cell membrane.
Another assay concerns A2AAR. As to conditions: sodium 150 mM; cited from earlier work.
In a further assay the target is δ-opioid receptor. As to conditions: cited from earlier work.

Like-named read-outs stand apart in the source and are kept apart here.

Sequence of wild-type CB2 (WT) (P34972 whole entry): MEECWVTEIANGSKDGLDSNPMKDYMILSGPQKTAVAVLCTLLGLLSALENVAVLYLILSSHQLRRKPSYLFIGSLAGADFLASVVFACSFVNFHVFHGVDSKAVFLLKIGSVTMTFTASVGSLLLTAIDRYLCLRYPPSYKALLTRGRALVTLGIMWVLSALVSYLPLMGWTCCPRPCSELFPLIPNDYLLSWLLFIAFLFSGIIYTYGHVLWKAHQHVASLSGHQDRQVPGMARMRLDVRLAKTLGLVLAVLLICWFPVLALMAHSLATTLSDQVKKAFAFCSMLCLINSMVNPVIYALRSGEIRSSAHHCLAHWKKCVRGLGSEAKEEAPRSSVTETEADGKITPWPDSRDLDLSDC
Sequence of CB2-WT (P34972 whole entry): as above

Take `Cc1ccc(Cn2nc(C(=O)N[C@@H]3C(C)(C)[C@@H]4CC[C@@]3(C)C4)cc2-c2ccc(Cl)c(C)c2)cc1` [SR144528, 5-(4-chloro-3-methylphenyl)-1-[(4-methylphenyl)methyl]-N-[(1S,2S,4R)-1,3,3-trimethylbicyclo[2.2.1]hept-2-yl]-1H-pyrazole-3-carboxamide]: the Ki – broadly, the equilibrium dissociation constant of an inhibitor or competing ligand from its target – on CB1 was 400 nM.

Turning to `N=C(N)NC(=O)c1nc(Cl)c(N)nc1N` [amiloride], the Ki at wild-type CB2 (WT) (Ki value at CB2, competition binding, no added NaCl) is 495000 nM; at wild-type CB2 (WT) (Ki value at CB2 with 150 mM NaCl, with 150 mM NaCl), 310000 nM.

In the case of `[Cl-].[Na+]` [Na^+, NaCl], on CB2-WT, the “effect on the binding of the CB2 agonist [3H]CP55940” value was “did not have any effect”.

Regarding `CCNC(=O)[C@H]1O[C@@H](n2cnc3c(N)ncnc32)[C@H](O)[C@@H]1O` [[^3H]NECA, 5′-N-ethylcarboxamidoadenosine], in the assay on A2AAR, the “binding detected in presence of sodium” value is listed as 25%.

As for “[D-Ala^2, D-Leu^5]-Enkephalin [[^3H]DADLE]”, the inhibition constant (Ki) on δ-opioid receptor (read-out: Ki value with 0 mM NaCl, 0 mM NaCl) is 280 nM; at δ-opioid receptor (read-out: Ki value with 140 mM NaCl, 140 mM NaCl), 2800 nM.

The record behind these values is paper PMC4170816 (Journal of Chemical Information and Modeling, 2014).
